Values after ≈ are worked out from the molar mass of the structure shown.
Key:
[1] = test system: KB (human mouth epidermoid carcinoma); experiment: Cytotoxicity assay, KB cells; assay type: cell-based; details: 72 h, 3 days incubation, by interpolation
Protocol: (§1) The cytotoxic activities of compounds against KB (human mouth epidermoid carcinoma), DLD (human colon adenocarcinoma), NCI-H661 (human lung large cell carcinoma), Hepa (human hepatoma), and HepG2/A2 (human hepatoblastoma) cells were assayed by the […] assay as previously described. The cells for assay were cultured in RPMI-1640 medium supplemented with […] in an incubator at 37 °C. The cytotoxicity assay depends on the binding of methylene blue to fixed monolayers of cells at pH 8.5, washing the monolayer, and releasing the dye by lowering the pH value. Samples and control standard drugs were prepared at a concentration of 1, 10, 40, and 100 μg/mL. After seeding 2880 cells/well in a 96-well microplate for 3 h, 20 μL of sample or standard agent was placed in each well and incubated at 37 °C for 3 days. After removing the medium from the microplates, the cells were fixed with 10% formaldehyde in 0.9% saline for 30 min, then dyed with 1% (w/v) methylene blue in 0.01 M borate-buffer (100 μL/well) for 30 min. The 96-well plate was dipped into a 0.01 M borate-buffer solution four times in order to remove the dye. Then, 100 μL/well of EtOH-0.1 M HCl (1:1) was added as a dye eluting solvent, and the absorbance was measured on a microtiter plate reader (Dynatech, MR 7000) at a wavelength of 650 nm. […] Doxorubicin was used as a standard compound.

[2] = test system: DLD (human colon adenocarcinoma); experiment: Cytotoxicity assay, DLD cells; assay type: cell-based; details: for IC50: Homo sapiens, 72 h, 3 days incubation, by interpolation
Protocol: as §1

[3] = test system: NCI-H661 (human lung large cell carcinoma); experiment: Cytotoxicity assay, NCI-H661 cells; assay type: cell-based; details: 72 h, 3 days incubation, by interpolation
Protocol: as §1

[4] = target: T1, human DNA topoisomerase I (Homo sapiens, UniProt P11387); experiment: Relaxation assay of topoisomerase I (supercoiled pBR322); assay type: biochemical; details: five concentrations 5, 10, 25, 50 and 100 μg/mL; read-out: Inhibition of DNA topoisomerase I IC50 (converted)
T1 construct: purchased TopoGen
T1 sequence (P11387 1-765): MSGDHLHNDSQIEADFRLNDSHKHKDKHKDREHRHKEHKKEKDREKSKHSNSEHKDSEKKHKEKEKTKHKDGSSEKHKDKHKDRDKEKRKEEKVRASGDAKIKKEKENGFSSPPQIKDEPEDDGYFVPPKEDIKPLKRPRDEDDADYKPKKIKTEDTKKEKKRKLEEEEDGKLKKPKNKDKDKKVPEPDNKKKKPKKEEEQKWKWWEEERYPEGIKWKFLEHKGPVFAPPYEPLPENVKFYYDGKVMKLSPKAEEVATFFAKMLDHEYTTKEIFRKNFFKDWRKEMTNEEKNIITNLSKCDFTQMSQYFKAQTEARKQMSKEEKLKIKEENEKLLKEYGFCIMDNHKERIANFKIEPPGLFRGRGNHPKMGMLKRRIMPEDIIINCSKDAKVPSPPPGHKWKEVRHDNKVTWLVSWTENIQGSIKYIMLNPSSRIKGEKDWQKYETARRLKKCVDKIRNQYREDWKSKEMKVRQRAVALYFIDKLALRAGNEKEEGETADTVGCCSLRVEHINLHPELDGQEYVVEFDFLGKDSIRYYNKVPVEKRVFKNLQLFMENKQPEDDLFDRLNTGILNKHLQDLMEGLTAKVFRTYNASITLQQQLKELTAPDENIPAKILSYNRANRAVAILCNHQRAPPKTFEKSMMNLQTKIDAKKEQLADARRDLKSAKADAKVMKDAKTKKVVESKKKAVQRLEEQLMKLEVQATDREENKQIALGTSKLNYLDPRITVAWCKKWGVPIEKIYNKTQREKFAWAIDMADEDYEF
Protocol: (§2) Topoisomerases I and II (topo I and II) assays were measured by assessing relaxation of supercoiled pBR322 plasmid DNA according to [24]. […] In summary, topo I (TopoGen) was mixed with the test sample and 10° volume of assay buffer (100 mM Tris-HCl, 10 mM EDTA, 1.5 M NACl, 1.0% BSA, […], and 50% glycerol), and then supercoiled DNA (pBR322) was added. In topo II assay, the mixture contained test sample and buffer including 50 mM Tris-HCl, 120 mM KCl, 10 mM MgCl2, 0.5 mM ATP, 0.5 mM dithiothreitol, 2 μg BSA, pBR322 plasmid DNA (0.25 μg), and 3U of topo II (TopoGen) in final volume of 20 μL. After incubation of topo I or topo II mixture for 30 min at 37 °C, 2 λ 10% SDS and 2.5 λ proteinase K were added for 1 h. The reaction mixtures were electrophoresed on a 2% agarose gel (50 V, 20 min; 100 V, 30 min; 110 V, 30 min) and stained with ethidium bromide. Finally, by a densitometer of ImageMaster® (Fujifilm thermal imaging system, FTI-500), the gels were directly scanned and the area representing supercoiled DNA was calculated.

[5] = target: T2, human DNA topoisomerase II (Homo sapiens, UniProt P11388); experiment: Relaxation assay of topoisomerase II (supercoiled pBR322); assay type: biochemical; details: for IC50: five concentrations 5, 10, 25, 50 and 100 μg/mL, read-out: Inhibition of DNA topoisomerase II IC50 (converted); for inhibition of DNA topoisomerase II (in words): compared with etoposide; for fold more potent against topoisomerase II compared to etoposide: relative to etoposide
T2 construct: purchased TopoGen
T2 sequence (P11388 whole entry): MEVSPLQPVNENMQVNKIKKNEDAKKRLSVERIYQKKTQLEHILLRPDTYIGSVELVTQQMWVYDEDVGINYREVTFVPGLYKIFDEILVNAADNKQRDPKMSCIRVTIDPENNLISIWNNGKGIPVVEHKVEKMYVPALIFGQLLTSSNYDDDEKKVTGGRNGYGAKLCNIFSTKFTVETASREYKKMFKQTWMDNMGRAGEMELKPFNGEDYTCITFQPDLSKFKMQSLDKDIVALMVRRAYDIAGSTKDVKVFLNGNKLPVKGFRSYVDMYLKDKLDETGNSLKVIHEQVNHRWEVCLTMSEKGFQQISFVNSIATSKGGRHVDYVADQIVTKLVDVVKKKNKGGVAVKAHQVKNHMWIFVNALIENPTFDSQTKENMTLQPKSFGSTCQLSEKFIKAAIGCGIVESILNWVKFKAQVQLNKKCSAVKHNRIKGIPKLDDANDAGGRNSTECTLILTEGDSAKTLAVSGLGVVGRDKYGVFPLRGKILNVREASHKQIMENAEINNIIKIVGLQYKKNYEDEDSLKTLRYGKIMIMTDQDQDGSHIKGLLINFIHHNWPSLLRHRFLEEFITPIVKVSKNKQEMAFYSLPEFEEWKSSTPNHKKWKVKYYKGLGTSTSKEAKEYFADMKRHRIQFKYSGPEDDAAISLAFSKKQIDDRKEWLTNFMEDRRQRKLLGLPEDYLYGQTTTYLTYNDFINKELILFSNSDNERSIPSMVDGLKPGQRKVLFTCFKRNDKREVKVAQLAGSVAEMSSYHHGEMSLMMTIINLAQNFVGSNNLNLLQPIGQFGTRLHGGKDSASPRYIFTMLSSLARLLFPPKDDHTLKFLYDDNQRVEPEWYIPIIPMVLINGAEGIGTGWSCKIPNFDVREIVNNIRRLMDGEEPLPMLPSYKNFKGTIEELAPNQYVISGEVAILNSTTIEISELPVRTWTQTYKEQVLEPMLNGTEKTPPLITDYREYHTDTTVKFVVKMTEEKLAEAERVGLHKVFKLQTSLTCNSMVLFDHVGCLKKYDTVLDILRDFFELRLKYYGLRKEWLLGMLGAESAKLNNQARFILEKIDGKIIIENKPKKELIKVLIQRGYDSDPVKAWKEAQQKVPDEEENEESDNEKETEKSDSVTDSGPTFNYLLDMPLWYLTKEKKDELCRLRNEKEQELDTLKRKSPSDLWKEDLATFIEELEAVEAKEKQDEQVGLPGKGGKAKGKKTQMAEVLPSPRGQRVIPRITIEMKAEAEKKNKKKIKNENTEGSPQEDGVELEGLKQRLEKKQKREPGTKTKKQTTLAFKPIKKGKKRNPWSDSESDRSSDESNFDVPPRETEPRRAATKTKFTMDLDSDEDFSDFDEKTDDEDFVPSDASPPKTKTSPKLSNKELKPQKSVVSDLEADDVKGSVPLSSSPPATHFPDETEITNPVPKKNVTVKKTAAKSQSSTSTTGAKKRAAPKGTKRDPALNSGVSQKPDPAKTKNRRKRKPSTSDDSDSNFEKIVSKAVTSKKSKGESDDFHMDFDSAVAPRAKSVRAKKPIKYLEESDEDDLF
Protocol: as §2

[6] = test system: HepG2/A2 (human hepatoma); experiment: Cytotoxicity assay, HepG2/A2 cells; assay type: cell-based; details: for IC50: Homo sapiens, 72 h, HepG2/A2 cells, 3 days incubation, by interpolation
Protocol: as §1

[7] = test system: Hepa (human hepatoma); experiment: Cytotoxicity assay, Hepa cells; assay type: cell-based; details: 72 h, 3 days incubation, by interpolation
Protocol: as §1

IC50 [4]	IC50 [5]	melting point	inhibition of DNA topoisomerase II (in words) [5]	fold more potent against topoisomerase II compared to etoposide [5]	Compound	IC50 [1]	IC50 [2]	IC50 [3]	IC50 [6]	IC50 [7]	cytotoxicity against HepG2/A2 (in words) ([6]; HepG2/A2 tumor cells)	activity in DLD assay (in words) [2]
> 223 µM	64.8 µM	91 to 92 °C			CCCCCCCCn1c2ccccc2c2cc(C3=NCCc4c3[nH]c3ccccc43)ccc21 [Compound 12, 1-(9′-Octyl-3′-carbazolyl)-3,4-dihydro-β-carboline]	9.13 µg/mL (≈ 20.4 µM)	2.55 µg/mL (≈ 5.7 µM)	5.28 µg/mL (≈ 11.8 µM)	30.1 µg/mL (≈ 67.2 µM)			
> 209 µM	58.6 µM	102 to 104 °C			CCCCCCCCCCn1c2ccccc2c2cc(C3NCCc4c3[nH]c3ccccc43)ccc21 (stereo not drawn) [Compound 13, 1-(9′-Decyl-3′-carbazolyl)-1,2,3,4-tetrahydro-β-carboline]	6.36 µg/mL (≈ 13.3 µM)	10.4 µg/mL (≈ 21.8 µM)	13.9 µg/mL (≈ 29.1 µM)	> 60 µg/mL			
> 210 µM	39.9 µM	78 to 80 °C			CCCCCCCCCCn1c2ccccc2c2cc(C3=NCCc4c3[nH]c3ccccc43)ccc21 [Compound 14, 1-(9′-Decyl-3′-carbazolyl)-3,4-dihydro-β-carboline]	> 20 µg/mL	> 20 µg/mL	> 20 µg/mL	> 60 µg/mL	> 20 µg/mL		
> 178 µM	> 178 µM	111 to 113 °C			CCCCCCCCCCCCCCCCn1c2ccccc2c2cc(C3NCCc4c3[nH]c3ccccc43)ccc21 (stereo not drawn) [Compound 15, 1-(9′-Hexadecyl-3′-carbazolyl)-1,2,3,4-tetrahydro-β-carboline]	> 20 µg/mL	> 20 µg/mL	> 20 µg/mL	> 60 µg/mL	> 20 µg/mL		
> 162 µM	> 162 µM				CCCCCCCCCCCCCCCCCCCCn1c2ccccc2c2cc(C3NCCc4c3[nH]c3ccccc43)ccc21 (stereo not drawn) [Compound 17, 1-(9′-Eicosyl-3′-carbazolyl)-1,2,3,4-tetrahydro-β-carboline]	> 20 µg/mL	> 20 µg/mL	> 20 µg/mL	> 60 µg/mL	> 20 µg/mL		

Second part, the compound before the results:

Compound	IC50 [4]	IC50 [5]	melting point	inhibition of DNA topoisomerase II (in words) [5]	fold more potent against topoisomerase II compared to etoposide [5]	IC50 [1]	IC50 [2]	IC50 [3]	IC50 [6]	IC50 [7]	cytotoxicity against HepG2/A2 (in words) ([6]; HepG2/A2 tumor cells)	activity in DLD assay (in words) [2]
CCn1c2ccccc2c2cc(C3NCCc4c3[nH]c3ccccc43)ccc21 (stereo not drawn) [Compound 1, 1-(9′-Ethyl-3′-carbazolyl)-1,2,3,4-tetrahydro-β-carboline]	> 274 µM	26 µM	240 to 242 °C			3.47 µg/mL (≈ 9.49 µM)	1.69 µg/mL (≈ 4.62 µM)	1.82 µg/mL (≈ 4.98 µM)				
CCn1c2ccccc2c2cc(C3=NCCc4c3[nH]c3ccccc43)ccc21 [Compound 2, 1-(9′-Ethyl-3′-carbazolyl)-3,4-dihydro-β-carboline]	> 275 µM	23.4 µM	175 to 177 °C			0.71 µg/mL (≈ 1.95 µM)	1.09 µg/mL (≈ 3 µM)	0.84 µg/mL (≈ 2.31 µM)	0.6 µg/mL (≈ 1.65 µM)			
CCCn1c2ccccc2c2cc(C3NCCc4c3[nH]c3ccccc43)ccc21 (stereo not drawn) [Compound 3, 1-(9′-Propyl-3′-carbazolyl)-1,2,3,4-tetrahydro-β-carboline]	124 µM	4.22 µM	110 to 112 °C	most potent	10- to 15 fold	1.84 µg/mL (≈ 4.85 µM)	1.58 µg/mL (≈ 4.16 µM)	2.14 µg/mL (≈ 5.64 µM)	6.1 µg/mL (≈ 16.1 µM)			
CCCn1c2ccccc2c2cc(C3=NCCc4c3[nH]c3ccccc43)ccc21 [Compound 4, 1-(9′-Propyl-3′-carbazolyl)-3,4-dihydro-β-carboline]	> 265 µM	5.56 µM	126 to 128 °C	most potent	10- to 15 fold	2.72 µg/mL (≈ 7.21 µM)	2.16 µg/mL (≈ 5.72 µM)	5.02 µg/mL (≈ 13.3 µM)	5.1 µg/mL (≈ 13.5 µM)			
CCC(C)n1c2ccccc2c2cc(C3NCCc4c3[nH]c3ccccc43)ccc21 (stereo not drawn) [Compound 5, 1-(9′-[1″-Methyl]propyl-3′-carbazolyl)-1,2,3,4-tetrahydro-β-carboline]	> 254 µM	25.4 µM	127 to 130 °C			3 µg/mL (≈ 7.62 µM)				2.25 µg/mL (≈ 5.72 µM)		
CCC(C)n1c2ccccc2c2cc(C3=NCCc4c3[nH]c3ccccc43)ccc21 (stereo not drawn) [Compound 6, 1-(9′-[1″-Methyl]propyl-3′-carbazolyl)-3,4-dihydro-β-carboline]	> 255 µM	66.4 µM	151 to 154 °C			0.48 µg/mL (≈ 1.23 µM)				2.67 µg/mL (≈ 6.82 µM)		
CCCCCn1c2ccccc2c2cc(C3NCCc4c3[nH]c3ccccc43)ccc21 (stereo not drawn) [Compound 7, 1-(9′-Pentyl-3′-carbazolyl)-1,2,3,4-tetrahydro-β-carboline]	218 µM	6.62 µM	129 to 130 °C	most potent		3.45 µg/mL (≈ 8.46 µM)	3.75 µg/mL (≈ 9.2 µM)	0.22 µg/mL (≈ 0.54 µM)	20.5 µg/mL (≈ 50.3 µM)			
CCCCCn1c2ccccc2c2cc(C3=NCCc4c3[nH]c3ccccc43)ccc21 [Compound 8, 1-(9′-Pentyl-3′-carbazolyl)-3,4-dihydro-β-carboline]	143 µM	54.2 µM	97 to 98 °C			> 20 µg/mL	1.29 µg/mL (≈ 3.18 µM)	3.39 µg/mL (≈ 8.36 µM)	5.4 µg/mL (≈ 13.3 µM)		active	
CC(C)CCn1c2ccccc2c2cc(C3NCCc4c3[nH]c3ccccc43)ccc21 (stereo not drawn) [Compound 9, 1-(9′-[3″-Methylbutyl]-3′-carbazolyl)-1,2,3,4-tetrahydro-β-carboline]	236 µM	6.87 µM	99 to 101 °C	most potent	10- to 15 fold	2.96 µg/mL (≈ 7.26 µM)				1.12 µg/mL (≈ 2.75 µM)		
CC(C)CCn1c2ccccc2c2cc(C3=NCCc4c3[nH]c3ccccc43)ccc21 [Compound 10, 1-(9′-[3″-Methylbutyl]-3′-carbazolyl)-3,4-dihydro-β-carboline]	165 µM	6.66 µM	135 to 137 °C	most potent	10- to 15 fold	3.13 µg/mL (≈ 7.72 µM)				4.4 µg/mL (≈ 10.8 µM)		
CCCCCCCCn1c2ccccc2c2cc(C3NCCc4c3[nH]c3ccccc43)ccc21 (stereo not drawn) [Compound 11, 1-(9′-Octyl-3′-carbazolyl)-1,2,3,4-tetrahydro-β-carboline]	> 222 µM	66.7 µM	87 to 89 °C			> 20 µg/mL	1.57 µg/mL (≈ 3.49 µM)	> 20 µg/mL	20.7 µg/mL (≈ 46 µM)			active

— publication PMC3093256, “Synthesis of 1-Substituted Carbazolyl-1,2,3,4-tetrahydro- and Carbazolyl-3,4-dihydro-β-carboline Analogs as Potential Antitumor Agents” (Marine Drugs, 2011)
